For one molecule, IC50 results are on record in patent US20240270732A1, “RECEPTOR-INTERACTING PROTEIN INHIBITOR, PREPARATION METHOD THEREFOR, AND USE THEREOF” (CHENGDU BIOBEL BIOTECHNOLOGY CO., LTD, priority 2021, published 2024).

In general, IC50 refers to the concentration that gives 50% inhibition.

Test [1] relates to human pancreatic cancer cells PANC-1. Kind of test: Inhibition of necrosis of PANC-1 cells induced by TNF-α (CellTiter-Glo). In kind it is cell-based. The following applies: Homo sapiens, PANC-1; TNF-α 100 ng/ml + AT-406 1 μM + z-VAD-FMK 20 μM, 24 h. As for the experimental part:
(§1) After the cells were incubated in a 5% CO2 incubator at 37° C. for 24 h, the test compound of the present invention and the control compound were diluted to the corresponding pre-determined concentration using the medium, and added to the 384-well plate at 5 μL/well. […] Then, 30 μL of CellTiter-Glo luminescent solution was added to each well, and shaken for 2 min. After standing at room temperature for 10 min, the absorbance was measured using ELISA. […] A is the group without necrosis-inducing agents, and B is the group with necrosis-inducing agents. […] A is the group without necrosis-inducing agents, B is the group with necrosis-inducing agents, and X is the group with compounds and necrosis-inducing agents.
On the technique in general: Cellular ATP, detected with luciferase, serves as a proxy for viable cell number.

For test [2], the system named is human colon cancer cells HT-29. Description: Inhibition of necrosis of HT-29 cells induced by TNF-α (CellTiter-Glo). In kind it is cell-based. Conditions: Homo sapiens, HT-29; TNF-α 100 ng/ml + AT-406 1 μM + z-VAD-FMK 20 μM, 24 h. As for the experimental part:
as §1

In a further test the test system is U937 cells. Description: Inhibition of necrosis of U937 cells induced by TNF-α (CellTiter-Glo). Type of test: cell-based. Conditions: Homo sapiens, U-937; TNF-α 100 ng/ml + AT-406 1 μM + z-VAD-FMK 20 μM, 24 h. On the procedure: After the cells were incubated in a 5% CO2 incubator at 37° C. for 24 h, the test compound of the present invention and the control compound were diluted to the corresponding pre-determined concentration using the medium, and added to the 384-well plate at 5 μL/well. […] Then, 30 μL of CellTiter-Glo luminescent solution was added to each well, and shaken for 2 min. After standing at room temperature for 10 min, the absorbance was measured using an enzyme-linked immunosorbent assay (ELISA). […] A is the group without necrosis-inducing agents, and B is the group with necrosis-inducing agents.

The next test relates to HacaT cells. Kind of test: Inhibition of necrosis of HacaT cells induced by TNF-α (CellTiter-Glo). Type of test: cell-based. The following applies: Homo sapiens, TNF-α 100 ng/ml + AT-406 1 μM + z-VAD-FMK 20 μM, 24 h. As for the experimental part: […] (purchased from ATCC) in logarithmic growth phase were collected and resuspended in 1640 medium, and then the cell concentration was adjusted to 20 cells/μL, to obtain cell suspension, which was seeded in 384-well plate, with 20 μL cell suspension for each well. After the cells were cultured in a 5% CO2 incubator at 37° C. for 24 h, the test compound of the present invention and the control compound were diluted to the corresponding pre-determined concentration using the medium, and added to the 384-well plate at 5 µL/well. […] Then, 30 μL of CellTiter-Glo luminescent solution was added to each well, and shaken for 2 min. After standing at room temperature for 10 min, the absorbance was measured using ELISA. […] A is the group without necrosis-inducing agents, and B is the group with necrosis-inducing agents.

The next test deals with human RIP1 kinase (Homo sapiens (Human), UniProt Q13546). Description: Inhibitory activity on RIP1 kinase (ADP-Glo). In kind it is biochemical. The following applies: human RIP kinase 25 nM. On the procedure: The compound of the present invention and the control compound were dissolved in the assay buffer (50 mM Hepes pH 7.5, 50 mM NaCl, 30 mM MgCl2, 1 mM DTT, 0.02% CHAPS, 0.5 mg/mL BSA), and diluted in a ratio of 1:1.5 using a 22-point titration (high concentration 2 μM), and then added to a 384-well plate. […] After completion of the reaction, 5 μL of ADP-Glo reagent containing 0.02% CHAPS was added to each well and incubated at room temperature for 1 h to terminate the kinase reaction and use up all remaining ATP. Then, 5 μL of ADP-Glo detection solution containing 0.02% CHAPS was added to each well and incubated at room temperature for 30 min to measure the emittance intensity. For each ATP concentration, the activity data was obtained by the emittance intensity minus the control intensity.
Chain of human RIP1 kinase (Q13546 whole entry): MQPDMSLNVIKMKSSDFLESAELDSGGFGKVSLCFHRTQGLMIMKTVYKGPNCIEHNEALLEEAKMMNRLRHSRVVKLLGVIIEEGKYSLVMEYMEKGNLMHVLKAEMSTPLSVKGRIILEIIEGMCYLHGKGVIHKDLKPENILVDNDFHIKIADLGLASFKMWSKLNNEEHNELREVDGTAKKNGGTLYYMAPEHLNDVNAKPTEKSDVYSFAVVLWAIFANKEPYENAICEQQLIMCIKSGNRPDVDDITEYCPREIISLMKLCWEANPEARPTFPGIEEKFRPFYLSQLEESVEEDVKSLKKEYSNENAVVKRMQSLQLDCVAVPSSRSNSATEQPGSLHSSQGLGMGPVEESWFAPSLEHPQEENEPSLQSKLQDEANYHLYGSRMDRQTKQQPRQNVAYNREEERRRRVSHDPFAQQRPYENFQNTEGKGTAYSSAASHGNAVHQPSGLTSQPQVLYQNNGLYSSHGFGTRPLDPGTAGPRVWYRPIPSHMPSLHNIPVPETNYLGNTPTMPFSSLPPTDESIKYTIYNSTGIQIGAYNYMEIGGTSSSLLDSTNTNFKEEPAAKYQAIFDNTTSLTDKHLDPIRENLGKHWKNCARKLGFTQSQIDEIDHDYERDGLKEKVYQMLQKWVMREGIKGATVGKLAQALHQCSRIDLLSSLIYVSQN
In general terms: In ADP-Glo the light output rises with the ADP produced.

As for `CN1C(=O)[C@@H](NC(=O)c2ncn(Cc3ccccc3)n2)COc2ccc(C#CCN3CCN(CC#Cc4ccc5c(c4)N(C)C(=O)[C@@H](NC(=O)c4ncn(Cc6ccccc6)n4)CO5)CC3)cc21` [Compound I-30], the IC50 amounted to 16 nM in test [1]; 16.6 nM in test [2]; 4.89 nM in the test with U937 cells; 4.07 nM with HacaT cells; 2.62 nM against human RIP1 kinase.
